Reference: US6444850B1, “Fungicidial compounds having a fluorovinyloxphyenyl moiety and process for the preparation thereof” (priority 1997, dated 2002)

Assays:
[1] = test system: Pyricularia oryzae Carvara KA301; assay type: in vivo; settings: for C. V. (%) RCB: 50 ppm, control value, rice blast
Erysiphae graminis = experiment: Fungicidal activity against barley powdery mildew (BPM) disease; assay type: in vivo; settings: for C. V. (%) BPM: 50 ppm, control value, barley powdery mildew; for C. V. (%), Fungicidal activities against TLB at 10 ppm: Table 9 (Test Example 6)
Rhizoctonia solani AG-1 = experiment: Fungicidal activity against rice sheath blight (RSB) disease; settings: 50 ppm, control value
Puccinia recondita = experiment: Fungicidal activity against wheat leaf rust (WLR) disease; assay type: in vivo; settings: for C. V. (%) WLR: 50 ppm, control value, wheat leaf rust; for C. V. (%), Fungicidal Activities against WLB at 10 ppm: Table 8 (Test Example 5)
Botrytis cinerae = experiment: Fungicidal activity against cucumber gray mold rot (CGM) disease; assay type: in vivo; settings: 50 ppm, control value
Phytophthora infestans = assay type: in vivo; settings: 50 ppm; control value, tomato late blight
[2] = 10 ppm, sprayed on Nakdong rice plant, control value from lesion area

Structure (SMILES) | C. V. (%) RCB [1] | C. V. (%) BPM (Erysiphae graminis) | C. V. (%) RSB (Rhizoctonia solani AG-1) | C. V. (%) WLR (Puccinia recondita) | C. V. (%) CGM (Botrytis cinerae) | C. V. (%) TLB (Phytophthora infestans) | C. V. (%), Fungicidal activities against TLB at 10 ppm (Erysiphae graminis) | C. V. (%), Fungicidal Activities against WLB at 10 ppm (Puccinia recondita) | C. V. (%) Fungicidal Activities against RCB at 10 ppm [1, 2] | C. V. (%) Fungicidal Activities against RCB at 10 ppm (TABLE 6) [1, 2]
CNC(=O)C(=COC)c1ccccc1COc1cccc(OC(F)=C(c2ccc(Br)cc2)C(F)(F)F)c1 [Compound 101] | 0% | 0% | 10% | 73% | 21% | 3% | – | – | – | –
COC=C(C(=O)OC)c1ccccc1COc1cccc(OC(F)=C(c2cc(Cl)cc(Cl)c2)C(F)(F)F)c1 [Compound 102] | 0% | 100% | 45% | 96% | 0% | 3% | 98% | – | – | –
CON=C(C(=O)OC)c1ccccc1COc1cccc(OC(F)=C(c2cc(Cl)cc(Cl)c2)C(F)(F)F)c1 [Compound 103] | 0% | 100% | 60% | 100% | 0% | 3% | 100% | 96% | – | –
CNC(=O)C(=NOC)c1ccccc1COc1cccc(OC(F)=C(c2cc(Cl)cc(Cl)c2)C(F)(F)F)c1 [Compound 104] | 100% | 100% | 50% | 100% | 0% | 0% | 100% | 100% | 98% | 98%
COC=C(C(=O)OC)c1ccccc1COc1cccc(OC(F)=C(c2cccs2)C(F)(F)F)c1 [Compound 105] | 96% | 70% | 78% | 100% | 0% | 0% | – | 96% | – | –
CCCCCCC(=C(F)Oc1cccc(OCc2ccccc2C(=COC)C(=O)OC)c1)C(F)(F)F [Compound 106] | 0% | 100% | 45% | 98% | 0% | 0% | 100% | 91% | – | –
CCCCCCC(=C(F)Oc1cccc(OCc2ccccc2C(=COC)C(=O)NC)c1)C(F)(F)F [Compound 107] | 0% | 41% | 10% | 80% | 21% | 3% | – | – | – | –
